Experimental data from patent US8088727B2, “Method for reducing the risk, lessening the symptom, or delaying the onset of insulin resistance by administering SS-31” (Cornell University, priority 2008, dated 2012).
Square brackets hold non-standard residues; d marks the D form. Ends that are not written are not given here. Peptide text beside a SMILES is read from it. Dmt = Cc1cc(O)cc(C)c1C[C@H](N)C(=O)O

How the values were obtained:
mu-opioid receptor = mu-opioid receptor (Homo sapiens, UniProt P35372); conditions: cited from earlier work
[1] = test system: skeletal muscle mitochondrial respiration of high fat fed rats; assay: Mitochondrial respiration in permeabilized fibers from high fat fed rats given SS-31; type: in vivo, rat
Description: (§1) Next, rats were placed on a high fat diet (60%) for six weeks with or without daily administration of SS-31.

[2] = test system: hearts subjected to myocardial stunning; conditions: hearts subjected to myocardial stunning (Zhao et al. 2004); cited from earlier work
fatty (fa/fa) Zucker rat = conditions: SS-31 1.0-5.0 mg/kg i.p. or oral, approximately 6 weeks
Description: Measured outcomes include body weight, fasting glucose/insulin/free fatty acid, glucose tolerance (OGTT), in vitro muscle insulin sensitivity (incubation), markers of insulin signaling (Akt-P, IRS-P), mitochondrial function studies on permeabilized fibers (respiration, H2O2 emission), markers of intracellular oxidative stress (lipid peroxidation, GSH/GSSG ratio, aconitase activity) and mitochondrial enzyme activity. […] Successful prevention of insulin resistance by the aromatic-cationic peptides of the invention is indicated by a reduction in one or more of the markers associated with insulin resistance or mitochondrial dysfunction enumerated above.
Measured outcomes include body weight, fasting glucose/insulin/free fatty acid, glucose tolerance (OGTT), in vitro muscle insulin sensitivity (incubation), markers of insulin signaling (Akt-P, IRS-P), mitochondrial function studies on permeabilized fibers (respiration, H2O2 emission), markers of intracellular oxidative stress (lipid peroxidation, GSH/GSSG ratio, aconitase activity) and mitochondrial enzyme activity. […] Successful treatment of insulin resistance by the aromatic-cationic peptides of the invention is indicated by a reduction in one or more of the markers associated with insulin resistance or mitochondrial dysfunction enumerated above.

[3] = test system: high fat diet-induced insulin resistance; assay: Oral glucose tolerance test after six week high fat diet; type: in vivo, rat
Description: To determine whether mitochondrial-derived changes in intracellular redox environment may be linked to the etiology of high fat diet-induced insulin resistance, oral glucose tolerance tests were performed in rats after the six week high fat diet. On the day of experiments, food was removed 10 hr prior to administration of a 2 g/kg glucose solution via gavage. Glucose levels were determined on whole blood samples (Lifescan, Milpitas, Calif.). Serum insulin levels were determined via a rat/mouse ELISA kit (Linco Research, St. Charles, Mo.). Fasting data were used to determine homeostatic model assessment (HOMA)-calculated as fasting insulin (μU/ml) x fasting glucose (mM)/22.5.

[4] = test system: mitochondrial H2O2 emission in permeabilized skeletal muscle fiber bundles; assay: Mitochondrial H2O2 emission in permeabilized skeletal muscle fiber bundles, SS-31 dose response in vitro; type: cell-based, rat; conditions: dose response curve in vitro (FIG. 3A), succinate-supported respiration
Description: Preparation of permeabilized muscle fiber bundles. Briefly, small portions (25 mg) of soleus, RG, and WG muscle were dissected and placed in ice-cold buffer X, containing 60 mM K-MES, 35 mM KCl, 7.23 mM K2 EGTA, 2.77 mM CaK2EGTA, 20 mM imidazole, 0.5 mM DTT, 20 mM taurine, 5.7 mM ATP, 15 mM PCr, and 6.56 mM MgCl2·6H2O (pH 7.1, 295 mosmol/kg H2O). The muscle was trimmed of connective tissue and cut down to fiber bundles (2×7 mm, 4-8 mg wet wt). With a pair of needle-tipped forceps under a dissecting microscope, fibers were gently separated from one another to maximize surface area of the fiber bundle, leaving only small regions of contact. […]
Mitochondrial respiration and H2O2 emission measurements. […] Mitochondrial H2O2 emission was measured at 30° C. during state 4 respiration in Buffer Z (10 μg/ml oligomycin) by continuously monitoring oxidation of Amplex Red using a Spex Fluoromax 3 (Jobin Yvon, Ltd.) spectrofluorometer with temperature control and magnetic stirring at >1000 rpm. […] After baseline fluorescence (reactants only) was established, the reaction was initiated by addition of a permeabilized fiber bundle to 300 μl of buffer Z containing 5 μM Amplex Red and 0.5 U/ml HRP, with succinate at […]. […] The rate of respiration is expressed as pmol·s^−1·mg dry weight^−1, and mitochondrial H2O2 emission expressed as pmol·min^−1·mg dry weight^−1. […]

pancreatic islet cells = pancreatic islet cells after transplantation (Thomas et al. 2005); cited from earlier work
[5] = test system: intracellular redox environment in skeletal muscle; assay: Total glutathione and GSH/GSSG ratio in skeletal muscle of high fat fed rats; type: in vivo, rat
Description: Protein homogenates were prepared by homogenizing 100 mg of powered frozen muscle in a buffer containing in mM: 10 Tris, 1 EDTA, 1 EGTA, 2 NaOrthovanadate, 2 NaPyrophosphate, 5 NaF, protease inhibitor cocktail (Complete) at pH 7.2. After homogenization, 1% Triton X-100 was added to the protein suspension, cotexed and allowed to sit on ice for 5 minutes. The tubes were then spun at 10,000 rpm for 10 minutes to pellet the insoluble debris. For GSSG measurement, tissue was homogenized in a solution containing 20 mM Methyl-2-vinylpyridinium triflate to scavenge all reduced thiols in the sample. Total GSH and GSSG were then measured using the reagents and calibration set provided by the GSH/GSSG assay (Oxis Research) according to the manufacturer's instructions, with small modifications as needed.
To establish a link between the increased mitochondrial oxidant emission brought about by high fat diet and its effect on overall redox environment of skeletal muscle, both GSH and GSSG were measured in skeletal muscle of chow fed and high fat fed rats under two conditions; after a 10 h fast and 1 h after administration of a standard glucose load (oral gavage, 10 h fasted). […]

[6] = rat, in vivo
Description: as §1

[7] = test system: skeletal muscle mitochondrial H2O2 emission of high fat fed rats; assay: Mitochondrial H2O2 emission in permeabilized fibers from high fat fed rats given SS-31; type: in vivo, rat; conditions: for increase in mitochondrial oxidant emitting potential: high fat diet (60%) six weeks
Description: as §1

Akt = Akt phosphorylation in skeletal muscle after oral glucose load; type: in vivo, rat; conditions: skeletal muscle of high fat fed rats, 1 h after oral glucose load (FIGS. 4E and 4F)
Description: Increased homeostatic model assessment (HOMA, FIG. 4C), and greater area under the curves for both blood glucose and insulin (FIG. 4D) confirmed the development of insulin resistance in high fat fed rats. […] To further assess insulin sensitivity, the phosphorylation state of the insulin signaling protein Akt in skeletal muscle from animals was measured after a 10 h fast or 1 h after receiving an oral glucose load. In response to glucose ingestion, Akt phosphorylation increased ˜5-fold in skeletal muscle of chow-fed controls but was unchanged in high fat fed rats (FIGS. 4E and 4F), confirming the presence of insulin resistance at the level of insulin signaling.

[8] = test system: mitochondrial inner membrane; conditions: while scavenging ROS; cited from earlier work
[9] = test system: animal models of Parkinson's and amyotrophic lateral sclerosis disease; conditions: animal models of Parkinson's and amyotrophic lateral sclerosis disease (Petri et al. 2006; Szeto et al. 2006); cited from earlier work
[10] = test system: several mammalian cell types; conditions: several mammalian cell types (Zhao et al. 2003); cited from earlier work

mu-opioid receptor, sequence (P35372 whole entry, species assumed): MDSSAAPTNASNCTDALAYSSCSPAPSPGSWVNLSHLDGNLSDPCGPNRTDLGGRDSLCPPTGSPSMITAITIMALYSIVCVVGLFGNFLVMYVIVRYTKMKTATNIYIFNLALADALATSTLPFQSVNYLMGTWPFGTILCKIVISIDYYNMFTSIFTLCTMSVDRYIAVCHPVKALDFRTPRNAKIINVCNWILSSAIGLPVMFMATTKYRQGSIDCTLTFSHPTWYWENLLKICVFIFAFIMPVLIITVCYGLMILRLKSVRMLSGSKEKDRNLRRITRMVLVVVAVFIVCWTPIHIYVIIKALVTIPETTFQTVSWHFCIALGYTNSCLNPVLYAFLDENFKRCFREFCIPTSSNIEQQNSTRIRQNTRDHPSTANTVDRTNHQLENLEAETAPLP

Tyr-D-Arg-Phe-Lys-NH2 [SS-01]
mu-opioid receptor agonist activity (mu-opioid receptor): has mu-opioid receptor agonist activity

Cc1cc(O)cc(C)c1C[C@H](NC(=O)[C@H](N)CCCNC(=N)N)C(=O)N[C@@H](CCCCN)C(=O)N[C@@H](Cc1ccccc1)C(N)=O [SS-31, D-Arg-2′6′Dmt-Lys-Phe-NH2] (H-[dR][Dmt]KF-NH2)
basal rate of respiration ([1]; palmitoyl-carnitine-supported, high fat fed rats (FIG. 3F)): not affected | basal rate of respiration ([1]; pyruvate/malate-supported, high fat fed rats (FIG. 3E)): not affected | ROS [2]: effectively reduce ROS | whole body and muscle insulin resistance (fatty (fa/fa) Zucker rat; Zucker rats (~12 weeks of age)): ameliorate or reduce | development of whole body and muscle insulin resistance (fatty (fa/fa) Zucker rat; young Zucker rats (~3-4 weeks of age)): attenuate or prevent | development of insulin resistance (HOMA, area under the curves for blood glucose and insulin) ([3]; high fat fed rats (FIGS. 4C and 4D)): completely blocked | blood glucose response to the oral glucose challenge ([3]; high fat fed rats, 2 g/kg glucose by gavage (FIG. 4A)): normalized | insulin response to the oral glucose challenge ([3]; high fat fed rats, 2 g/kg glucose by gavage (FIG. 4B)): normalized | reduction in mitochondrial H2O2 emission [4]: greater than 50% | ROS (pancreatic islet cells): effectively reduce ROS | GSH/GSSG ratio ([5]; high fat fed rats, 10 h fast and 1 h after glucose ingestion (FIG. 3H)): preserved the GSH/GSSG ratio near control levels | reduction in total cellular glutathione content (GSHT) ([5]; high fat feeding with SS-31 treatment, skeletal muscle (FIG. 3G)): ~30% | weight gain [6]: did not affect | reduction in mitochondrial H2O2 emission ([7]; dose response curve in vivo (FIG. 3B), succinate-supported respiration): greater than 50% | increase in mitochondrial oxidant emitting potential ([7]; palmitoyl-carnitine supported respiration, daily SS-31 (FIG. 3D)): completely prevented | increase in mitochondrial oxidant emitting potential ([7]; succinate supported respiration, daily SS-31 (FIG. 3C)): completely prevented | Akt phosphorylation in response to glucose ingestion (Akt): completely preserved | effect on membrane potential or respiratory control [8]: without affecting | mu-opioid receptor agonist activity (mu-opioid receptor): does not have mu-opioid receptor agonist activity | ROS [9]: effectively reduce ROS

2′,6′-Dmt-D-Arg-Phe-Lys-NH2 [SS-02]
penetration of the plasma membrane [10]: readily penetrates

F[dR]FK-NH2 [SS-20]
mu-opioid receptor agonist activity (mu-opioid receptor): does not have mu-opioid receptor agonist activity
